Where a name gives a salt, the structure may show the parent alone.
How the values were obtained:
[1] = molecular target: T1, human recombinant aldose reductase (Homo sapiens, UniProt P15121); experiment: Aldose reductase inhibition assay (spectrophotometric, glyceraldehyde substrate); assay type: biochemical; conditions: recombinant enzyme, DL-glyceraldehyde substrate, pH 6.2, 37°C
T1 construct: made in house; host or cells: Escherichia coli
Procedure: Recombinant human aldose reductase was purified from bacterial cultures. Enzyme from expression cultures was extracted and purified essentially as described previously ([12]) with the exception that affinity chromatography over AffiGel Blue (Bio-Rad) was used as a final purification step.
AR activity was assayed according to the method described in the literature ([13]). The assay mixture in 1 ml contained 50 μM potassium phosphate buffer, pH 6.2, 0.4 mM lithium sulfate, 5 μM 2-mercapto ethanol, 10 μM DL-glyceraldehyde, 0.1 μM NADPH, and enzyme preparation (recombinant enzyme). Appropriate blanks were employed for corrections. The assay mixture was incubated at 37°C and initiated by the addition of NADPH at 37°C. The change in absorbance at 340 nm due to NADPH oxidation was followed in a Cary Bio 100 spectrophotometer.
The percent of inhibition with a test compound was calculated considering that the AR activity in the absence of an inhibitor was 100%. The concentration of the test sample giving 50% inhibition (IC50) was then estimated.

[2] = tested on: red blood cells; experiment: Inhibition of sorbitol formation in erythrocytes; assay type: cell-based, human; conditions: at IC50 concentration; compared with glucose-induced sorbitol levels (30 mM glucose, 3 h)
Procedure: The method in brief is discussed below. Five milliliters of blood sample was obtained from a healthy volunteer on overnight fasting in heparinized tubes. Red blood cells were separated by centrifugation and washed three times with isotonic saline at 4°C. The washed RBC were suspended in Kreb’s ringer bicarbonate buffer, pH 7.4 (preequilibrated with 5% CO2), and incubated at 37°C in the presence of 5% CO2 for 3 h under normal (3.0 mM) and high glucose (30 mM) conditions. […] At the end of the incubation period, RBC was homogenized in nine volumes of 0.8 M perchloric acid. The homogenate was centrifuged at 5,000 × g at 4°C for 10 min, and the pH of the supernatant was adjusted to 3.5 with 0.5 M potassium carbonate. The sorbitol content of the supernatant was measured by fluorometric method as described previously ([14]) using a spectrofluorometer (Jasco-FP-6500).

[3] = tested on: bovine serum albumin; experiment: Inhibition of advanced glycation end products (fluorometric, glucose + bovine serum albumin); assay type: biochemical; conditions: control mean 7.5
Procedure: Fluorescence was measured at the excitation wavelength of 360 nm and the emission wavelength of 440 nm. Afterwards, the samples were cooled to room temperature.

[4] = tested on: HFF-1 (human dermal fibroblasts); experiment: Scratch assay, fibroblast migration under high glucose; assay type: cell-based
Procedure: High blood glucose levels hamper the migration of human fibroblasts, endothelial cells, and keratinocytes that impair wound healing ([16]–[20]). […] The detailed protocol and cytotoxicity results are provided in the Supplementary File. An actively growing culture of HFF-1 (human dermal fibroblasts), Ea.hy926 (human endothelial cells), and HaCaT (human keratinocytes) cell lines in Dulbecco’s modified Eagle’s medium containing 25 mM glucose supplemented with 10% fetal bovine serum was prepared. The cells were counted through a hemocytometer and were seeded at a density of 0.08 × 10^6 (HFF-1), 0.1 × 10^6 (Ea.hy926), and 0.2 × 10^6 (HaCaT Cells) cells/well/ml of culture medium. The plates were incubated overnight followed by serum starvation for 24 h. Scratch wounds were made in a confluent monolayer by making a straight scratch in the center of the well using a sterile 200-µl pipette microtip. […] The kinetics of migration of the cells in the wound was recorded by phase-contrast microscopy. The experiment was carried out in duplicate cells for each concentration.

[5] = MTT cytotoxicity in HFF-1; assay type: cell-based, human; conditions: human, HFF-1 cells, HFF-1, 48 h, read-out: % Cytotoxicity w.r.t. untreated cells
Procedure: (§1) 1. HaCaT, HFF-1 and Ea.hy926 cells were counted and plated in 96 well plates at the density corresponding to 5 X 10^3 cells/well/180 μl of cell growth medium.
(§2) 2. The above cells were then incubated overnight under growth conditions of 37°C, 95 % Humidity, 5 % CO2.so as to allow the cell recovery and exponential growth.
(§3) 3. Following overnight incubation, the above cells were serum starved in DMEM (containing 25 mM glucose) supplemented with […] for 24 h.
(§4) 5. The Ea.hy926 cells were then incubated for 24 h and HaCaT and HFF-1 cells were incubated for 48 h in CO2 incubator at 37 °C, 5 % CO2 and 95 % humidity.
(§5) 6. Following incubation, the plates were taken out and 20 μl of 5 mg/ml of MTT 3-(4,5-dimethythiazol-2-yl)-2,5-diphenyl tetrazolium bromide solution was added to all the wells followed by additional incubation for 3 h at 37 °C. The supernatant was aspirated and 150 μl of DMSO was added to each well to dissolve formazan crystals. The absorbance of each well was then read at 540 nm using Synergy HT micro plate reader.
(§6) 7. The percentage cytotoxicity at each tested concentration was calculated using the following formula:
(§7) % Cytotoxicity = (1-X/R)*100

[6] = tested on: HFF-1 cells; experiment: MTT cytotoxicity in HFF-1; assay type: cell-based, human; conditions: HFF-1, all tested concentrations (0.01 to 1000 μM); <30% = non-cytotoxic
Procedure: as §1, §2, §3, §4, §5, §6, §7

[7] = MTT cytotoxicity in Ea.hy926; assay type: cell-based, human; conditions: human, Ea.hy926 cells, Ea.hy926, 24 h, read-out: % Cytotoxicity w.r.t. untreated cells
Procedure: as §1, §2, §3, §4, §5, §6, §7

[8] = tested on: Ea.hy926 cells; experiment: MTT cytotoxicity in Ea.hy926; assay type: cell-based, human; conditions: Ea.hy926, all tested concentrations (0.01 to 1000 μM); <30% = non-cytotoxic
Procedure: as §1, §2, §3, §4, §5, §6, §7

[9] = tested on: Hanford miniature swine; experiment: 12-week dermal toxicity study in miniature swine; assay type: in vivo
Procedure: A total of 40 Hanford miniature swine (20 male and 20 female) divided into four treatment groups were used for this study. A 12-week topical application of Galnobax 20% was carried out in the miniature swine wound healing model with twice-daily dosing. Six wounds (10 cm^2 each) of partial thickness were created on the dorsal region of all animals. Four wounds of each animal received twice-daily topical doses of either the vehicle or Galnobax gel, and the remaining two sites served as untreated comparative control wounds. Each group has four male and female miniature swine for the assessments and one each for the recovery period as given in Table 1 . Safety parameters in terms of ECG, clinical pathology, wound site evaluation, and toxicokinetics were performed during the study.

In the case of `COC(=O)CCc1ccc(OCC(O)CNC(C)C)cc1` (stereo not drawn) [Esmolol hydrochloride], the IC50 [1] is reported as 150 µM, the “inhibition of sorbitol formation in red blood cells” value [2] is reported as 59% and the “Fluorescence measurement, mean” value ([3]; 500 µM) is reported as 5. For the same compound, the “Fluorescence measurement, mean” value ([3]; 1 mM) was 2.6, the “Fluorescence measurement, mean” value ([3]; 1 mM, listed as esmolol) was 2.6 ± 1.7 and the migration of fibroblasts ([4]; 1 and 10 µM, compared with control, high glucose) was “enhanced the migration”. For the same compound, the migration of fibroblasts ([4]; 100 and 500 µM compared with 1 and 10 µM) was “lower migration”, the cytotoxicity at 48 h, 0.01 µM ([5]; 0.01 μM) was -21.6% and the cytotoxicity at 48 h, 0.1 µM ([5]; 0.1 μM) was -10.7%. For the same compound, the cytotoxicity at 48 h, 1 µM ([5]; 1 μM) was -8.29%, the cytotoxicity at 48 h, 10 µM ([5]; 10 μM) was -17.1% and the cytotoxicity at 48 h, 50 µM ([5]; 50 μM) was -21.8%. The cytotoxicity at 48 h, 100 µM ([5]; 100 μM) was -21.9%, the cytotoxicity at 48 h, 500 µM ([5]; 500 μM) was 14% and the cytotoxicity at 48 h, 1000 µM ([5]; 1000 μM) was 16.6%. The “cytotoxicity” value [6] was “non-cytotoxic”, the cytotoxicity at 24 h, 0.01 µM ([7]; 0.01 μM) was 5.84% and the cytotoxicity at 24 h, 0.1 µM ([7]; 0.1 μM) was 1.73%. The cytotoxicity at 24 h, 1 µM ([7]; 1 μM) was 11.4%, the cytotoxicity at 24 h, 10 µM ([7]; 10 μM) was 13.8% and the cytotoxicity at 24 h, 50 µM ([7]; 50 μM) was 3.85%. The cytotoxicity at 24 h, 100 µM ([7]; 100 μM) was 2.79%, the cytotoxicity at 24 h, 500 µM ([7]; 500 μM) was 17.5% and the cytotoxicity at 24 h, 1000 µM ([7]; 1000 μM) was 12.7%. For the same compound, the “cytotoxicity” value [8] was “non-cytotoxic”, the “local reactions at the injection sites” value ([9]; subcutaneously administered esmolol (30 mg/kg once or twice daily) plus topical Galnobax) was “moderate to severe local reactions” and the ovary weights ([9]; subcutaneously administered esmolol plus topical Galnobax, no histopathologic changes) was “reduction in absolute and relative ovary weights”.

Source: PMC9446078 (Frontiers in Endocrinology, 2022)
